Source: PMC12128972, “TYRA-300, an FGFR3-selective inhibitor, promotes bone growth in two FGFR3-driven models of chondrodysplasia” (JCI Insight, 2025)
Values joined by “and” are separate entries in the source; they are usually repeats but may differ in a detail not shown here. Identical values can stand only once.

What was measured:
Type in all cases: in vivo, mouse
[1] = test system: skull and foramen magnum of Fgfr3^Y367C/+ mice; experiment: Fgfr3Y367C/+ mice: skull and foramen magnum (calipers, microCT), grade of synchondroses; design: source data of Figure 3I (sheet "3I"): grade of synchondroses: scale not given here
Experimental: Another hallmark of ACH that is observed in Fgfr3^Y367C/+ mice is change in the size and shape of the skull and foramen magnum ([28]). The size of the foramen magnum is of particular clinical importance, as its reduced size can cause compression of the brain stem and spinal cord, resulting in significant morbidity and mortality in infants with ACH ([37]–[40]). To study the effects of TYRA-300 on the skull and foramen magnum in Fgfr3^Y367C/+ mice, macroscopic analyses were performed and μCT images were taken of the mice at the end of study. Changes in the shape of the skull are visible on μCT images in TYRA-300–treated Fgfr3^Y367C/+ mice compared with vehicle-treated Fgfr3^Y367C/+ mice (Figure 3A). […] The skull was further analyzed using the μCT images, which enabled measurement of the anteroposterior length and nasio-occipital length of the skull.
The μCT images also indicate that treatment with TYRA-300 modified the synchondroses at the base of the skull (Figure 3, I and J). […] Overall, the improvement in the size and shape of the foramen magnum with TYRA-300 has important clinical implications for foramen magnum stenosis.
(§1) Whole body x-ray images were taken of all animals by Faxitron specimen radiography MX-20 (Faxitron X-Ray LLC) following terminal sacrifice. The length of the L4–L6 lumbar vertebra segment was also measured for each animal using calipers, and the height of the L5 vertebral body was measured from Alcian blue/Sirius red images. Long bones and the skull were then excised, and their dimensions were measured using calipers (VWRi819-0013, VWR International). The transverse and sagittal diameters of the foramen magnum were also measured using calipers for the Fgfr3^Y367/+ model, and measured using the μCT images for the Fgfr3^N534K/+ model.
The heads of all mice were isolated, and skin was stripped before being placed in 70% ethanol at 4°C. μCT images of the skulls were measured on the Skyscan-1272 (Bruker) with the following parameters: 10 μm resolution, 680 ms exposure, 70 kV, 142 μA, and 0.350° rotation step. The μCT data were analyzed using DataViewer and CTAn software (version 1.20.8) to perform postprocessing techniques in 3D. The nasio-occipital length and anteroposterior length of the skull were measured using 2D μCT images.

[2] = test system: lumbar vertebrae of Fgfr3^Y367C/+ mice; experiment: Fgfr3Y367C/+ mice: lumbar vertebrae and intervertebral discs (calipers, histology); settings: 1.2 mg/kg s.c. daily for 15 days
Experimental: Individuals with ACH frequently experience back pain and may undergo multiple spinal surgeries throughout their lives ([40]). Kyphosis and scoliosis are common with ACH and are also observed in the Fgfr3^Y367C/+ mouse model ([40]), and Fgfr3 is expressed in the intervertebral discs of Fgfr3^Y367C/+ mice ([28]). To determine how TYRA-300 affects the vertebrae and intervertebral discs, the spine was analyzed in the Fgfr3^Y367C/+ mice treated with TYRA-300 or vehicle.
as §1
(§2) The right femur and lumbar vertebrae segment L4–L6 were collected and fixed in 4% paraformaldehyde, decalcified with ethylenediaminetetraacetic acid (EDTA) 0.5 M (pH 8) for 2 or 3 weeks, and embedded in paraffin. Serial paraffin sections of 5 μm were stained with hematoxylin, eosin, and Safranin O. For immunohistochemistry, sections were labeled with antibodies against collagen type X (BIOCYC ref. [1]-CO097-05-RUO, 1:100 dilution), collagen type I (Novotec, 20151, dilution 1:1,000), pERK (Cell Signaling, 4370S, dilution 1:1,000), and PCNA (Abcam, GR3195972-6, 1:500 dilution) using the Dako Envision Kit. Images were captured with an Olympus PD70-IX2-UCB microscope and CellSens software (Olympus Life Science Solutions). Cells were counted using ImageJ software (NIH, Laboratory for Optical Computational Instrumentation).

pERK1/2 = experiment: Fgfr3N534K/+ mice: histology and pERK1/2 immunohistochemistry of distal femur; settings: 1.8 mg/kg daily for 21 days
Experimental: To confirm the mechanistic effect of TYRA-300 within the growth plate of treated Fgfr3^N534K/+ mice, immunohistochemical analyses were performed on the distal femurs. In contrast to the ACH model, a larger SOC is visible in the femoral epiphysis of HCH mice ([42]), and the effect of TYRA-300 on SOC formation is not obvious. […] It is well established that the MAPK pathway is the canonical FGFR3 downstream signaling pathway. Here, we confirmed that this pathway is still activated at 24 days of age in the HCH growth plate through immunohistochemical staining of phosphorylated ERK1/2 (pERK), which was positive in hypertrophic chondrocytes (Figure 4G).
as §2, with “Images were captured with an Olympus PD70-IX2-UCB microscope and CellSens software (Olympus Life Science Solutions).” left out

[3] = 1.2 mg/kg s.c. daily for 15 days
[4] = 1.2 mg/kg s.c. daily for 15 days, macroscopic
[5] = 1.2 mg/kg s.c. daily for 15 days, microCT

C[C@@H](Oc1ccc2[nH]nc(-c3ccc(N4CC5(C4)CN(S(C)(=O)=O)C5)nc3)c2c1)c1c(Cl)cncc1Cl [TYRA-300]
increase in sagittal diameter of the foramen magnum vs vehicle [1, 3]: 9.28% | increase in transverse diameter of the foramen magnum vs vehicle [1, 3]: 13.05% | grade of synchondroses (intraoccipital synchondrosis anterior) ([1]; 1.2 mg/kg s.c. daily for 15 days, all treated mice): II or III | increase in skull length vs vehicle [1, 4]: 10.08% | increase in skull width vs vehicle [1, 4]: 3.74% | increase in anteroposterior length of the skull vs vehicle [1, 5]: 8.92% | increase in area of the foramen magnum vs vehicle [1, 5]: 25.17% | increase in nasio-occipital length of the skull vs vehicle [1, 5]: 7.87% | source data of Figure 3I (sheet "3I"): grade of synchondroses ([1]; Fgfr3Y367C/+ mice + TYRA-300, individual animal values): 3 and 2.5 | height of the vertebral bodies vs vehicle [2]: increased the height of the vertebral bodies | increase in L4-L6 lumbar vertebrae segment length vs vehicle [2]: 23.49% | shape of the intervertebral disc [2]: decreasing the height and increasing the lateral width of the nucleus pulposus | overall architecture of the growth plate (H&E and collagen type X) (pERK1/2): did not demonstrate significant changes | pERK+ cells per ROI vs vehicle (pERK1/2; distal femur growth plate): significant decrease
